Measurements published in US12495798B2, “Nicotinamide compound and herbicidal composition comprising compound” (KOREA RESEARCH INSTITUTE OF CHEMICAL TECHNOLOGY, priority 2019, dated 2025).

Legend:
Type in all cases: in vivo
corn [1] = experiment: Phytotoxicity test for field crops (soil treatment test); parameters: key: 0 (no harm); 9 (complete withered)
Procedure: (§1) Experimental Example 4: Phytotoxicity Test for Field Crops (Soil Treatment Test)
(§2) Soil treatment was performed for sown crops and weeds in a square plastic pot having a surface area of 50 cm^2 filled with sterilized horticultural soil (pH 6.1, organic material 1.0%, clay 21%, silt 17%, sand 52%). As a fertilizer per pot, 0.5 g of horticultural mixed fertilizer (N:P:K=17:21:17) was treated by mixing with soil. Five kinds of crops such as rice, wheat, corn, soybean, and cotton were sown in each pot. One day after sowing, test compound solutions were made by diluting with the diluent (33% acetone, 0.1% Tween-20) so that the final treatment amount of the test compounds was 19˜300 g a.i./ha. The prepared test compound solutions were treated using a spray booth (SB6-016) at a treatment amount of 100 ml per 1 m^2 of treatment area. The treated crops were managed in greenhouse conditions (average temperature 30±5° C., light/dark=14/10 hours). External symptoms and phytotoxicity were visually investigated 10 and 20 days after treatment. In the evaluation of the phytotoxicity for the crop, the grade of 0 (no harm) to 9 (complete withered) was used. The results of Table 10 were obtained by evaluating phytotoxicity value to the untreated control.

soybean [2] = experiment: as above; parameters: key: 0 (no harm); 9 (complete withered)
Procedure: as §1, §2

rice [3] = experiment: as above; parameters: key: 0 (no harm); 9 (complete withered)
Procedure: as §1, §2

wheat [4] = experiment: as above; parameters: key: 0 (no harm); 9 (complete withered)
Procedure: as §1, §2

cotton [5] = experiment: as above; parameters: key: 0 (no harm); 9 (complete withered)
Procedure: as §1, §2

corn [6] = experiment: Phytotoxicity test for upland field crops (foliar treatment test); parameters: key: 0 (no harm); 9 (complete withered)
In short: (§3)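 Application rate ranged 19˜300 g a.i./ha, delivered as a foliar spray (100 ml/m^2) in 33% acetone with 0.1% Tween-20 to crops raised at 30±5 °C under 14/10 h light/dark. Symptoms were assessed 7 and 14 days post-treatment, extending to 21 days where necessary, using a 0–9 injury grade relative to untreated control.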

soybean [7] = experiment: as above; parameters: key: 0 (no harm); 9 (complete withered)
In short: as §3

rice [8] = experiment: as above; parameters: key: 0 (no harm); 9 (complete withered)
In short: as §3

wheat [9] = experiment: as above; parameters: key: 0 (no harm); 9 (complete withered)
In short: as §3

cotton [10] = experiment: as above; parameters: key: 0 (no harm); 9 (complete withered)
In short: as §3

cocklebur = experiment: Herbicidal activity test against upland field weeds (foliar treatment test); conditions: Xanthium strumarium, 50 g ai/ha, scale 0-100
In short: (§4)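 Weeds were raised from seed or rootstocks in horticultural soil in a greenhouse (30±5° C., 14/10 h light/dark), then foliage was hand-sprayed with compound at 50 or 75 g a.i./ha in 50% acetone with 0.1% Tween-20. Control was scored visually 0–100 against untreated plants after 14 days, or 21 if needed.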

quack grass = experiment: as above; parameters: key to Foliar treatment herbicidal activity, quack grass: 0 (no control); 100 (complete control); conditions: 50 g ai/ha, scale 0-100
In short: as §4

velvetleaf = experiment: as above; conditions: Abutilon theophrasti, 50 g ai/ha, scale 0-100, read-out: Foliar treatment herbicidal activity, velvet leaf
In short: as §4

black nightshade = experiment: as above; parameters: key to Foliar treatment herbicidal activity, black nightshade: 0 (no control); 100 (complete control); conditions: 50 g ai/ha, scale 0-100
In short: as §4

fall panicum = experiment: as above; conditions: Panicum dichotomiflorum, 50 g ai/ha, scale 0-100
In short: as §4

bindweed = experiment: as above; conditions: 50 g ai/ha, scale 0-100
In short: as §4

crabgrass = experiment: as above; conditions: Digitaria sanguinalis, 50 g ai/ha, scale 0-100
In short: as §4

sorghum = experiment: as above; conditions: Sorghum, 50 g ai/ha, scale 0-100
In short: as §4

indian jointvetch = experiment: as above; parameters: key to Foliar treatment herbicidal activity, Indian jointvetch: 0 (no control); 100 (complete control); conditions: 50 g ai/ha, scale 0-100
In short: as §4

barnyard grass = experiment: as above; conditions: Echinochloa crus-galli, 50 g ai/ha, scale 0-100
In short: as §4

[11] = 50 g ai/ha, Corn (7 days after treatment)
[12] = 50 g ai/ha, Corn (14 days after treatment)
[13] = 100 g ai/ha, Corn (7 days after treatment)
[14] = 100 g ai/ha, Corn (14 days after treatment)
[15] = 50 g ai/ha, Wheat (7 days after treatment)
[16] = 50 g ai/ha, Wheat (14 days after treatment)
[17] = 100 g ai/ha, Wheat (7 days after treatment)
[18] = 100 g ai/ha, Wheat (14 days after treatment)

Cn1nnnc1NC(=O)c1ccc(C(F)(F)F)nc1Sc1nnnn1C [Compound No. 1-40, N-(1-methyl-1H-tetrazol-5-yl)-2-((1-methyl-1H-tetrazol-5-yl)thio)-6-(trifluoromethyl)nicotinamide]
Soil treatment phytotoxicity, Corn (corn [1]; 50 g ai/ha, Corn (10 days after treatment)): 0 | Soil treatment phytotoxicity, Corn (corn [1]; 50 g ai/ha, Corn (20 days after treatment)): 0 | Soil treatment phytotoxicity, Corn (corn [1]; 100 g ai/ha, Corn (10 days after treatment)): 0 | Soil treatment phytotoxicity, Corn (corn [1]; 100 g ai/ha, Corn (20 days after treatment)): 0 | Soil treatment phytotoxicity, Soybean (soybean [2]; 50 g ai/ha, Soybean (10 days after treatment)): 0 | Soil treatment phytotoxicity, Soybean (soybean [2]; 50 g ai/ha, Soybean (20 days after treatment)): 0 | Soil treatment phytotoxicity, Soybean (soybean [2]; 100 g ai/ha, Soybean (10 days after treatment)): 0 | Soil treatment phytotoxicity, Soybean (soybean [2]; 100 g ai/ha, Soybean (20 days after treatment)): 0 | Soil treatment phytotoxicity, Rice (rice [3]; 50 g ai/ha, Rice (10 days after treatment)): 0 | Soil treatment phytotoxicity, Rice (rice [3]; 50 g ai/ha, Rice (20 days after treatment)): 0 | Soil treatment phytotoxicity, Rice (rice [3]; 100 g ai/ha, Rice (10 days after treatment)): 0 | Soil treatment phytotoxicity, Rice (rice [3]; 100 g ai/ha, Rice (20 days after treatment)): 0 | Soil treatment phytotoxicity, Wheat (wheat [4]; 50 g ai/ha, Wheat (10 days after treatment)): 0 | Soil treatment phytotoxicity, Wheat (wheat [4]; 50 g ai/ha, Wheat (20 days after treatment)): 0 | Soil treatment phytotoxicity, Wheat (wheat [4]; 100 g ai/ha, Wheat (10 days after treatment)): 0 | Soil treatment phytotoxicity, Wheat (wheat [4]; 100 g ai/ha, Wheat (20 days after treatment)): 0 | Soil treatment phytotoxicity, Cotton (cotton [5]; 50 g ai/ha, Cotton (10 days after treatment)): 1 | Soil treatment phytotoxicity, Cotton (cotton [5]; 50 g ai/ha, Cotton (20 days after treatment)): 0 | Soil treatment phytotoxicity, Cotton (cotton [5]; 100 g ai/ha, Cotton (10 days after treatment)): 3 | Soil treatment phytotoxicity, Cotton (cotton [5]; 100 g ai/ha, Cotton (20 days after treatment)): 0 | Foliar treatment phytotoxicity, Corn (corn [6]; [11]): 0 | Foliar treatment phytotoxicity, Corn (corn [6]; [12]): 0 | Foliar treatment phytotoxicity, Corn (corn [6]; [13]): 0 | Foliar treatment phytotoxicity, Corn (corn [6]; [14]): 0 | Foliar treatment phytotoxicity, Soybean (soybean [7]; 50 g ai/ha, Soybean (7 days after treatment)): 6 | Foliar treatment phytotoxicity, Soybean (soybean [7]; 50 g ai/ha, Soybean (14 days after treatment)): 5 | Foliar treatment phytotoxicity, Soybean (soybean [7]; 100 g ai/ha, Soybean (7 days after treatment)): 6 | Foliar treatment phytotoxicity, Soybean (soybean [7]; 100 g ai/ha, Soybean (14 days after treatment)): 5 | Foliar treatment phytotoxicity, Rice (rice [8]; 50 g ai/ha, Rice (7 days after treatment)): 0 | Foliar treatment phytotoxicity, Rice (rice [8]; 50 g ai/ha, Rice (14 days after treatment)): 0 | Foliar treatment phytotoxicity, Rice (rice [8]; 100 g ai/ha, Rice (7 days after treatment)): 0 | Foliar treatment phytotoxicity, Rice (rice [8]; 100 g ai/ha, Rice (14 days after treatment)): 1 | Foliar treatment phytotoxicity, Wheat (wheat [9]; [15]): 0 | Foliar treatment phytotoxicity, Wheat (wheat [9]; [16]): 0 | Foliar treatment phytotoxicity, Wheat (wheat [9]; [17]): 1 | Foliar treatment phytotoxicity, Wheat (wheat [9]; [18]): 0 | Foliar treatment phytotoxicity, Cotton (cotton [10]; 50 g ai/ha, Cotton (7 days after treatment)): 2 | Foliar treatment phytotoxicity, Cotton (cotton [10]; 50 g ai/ha, Cotton (14 days after treatment)): 3 | Foliar treatment phytotoxicity, Cotton (cotton [10]; 100 g ai/ha, Cotton (7 days after treatment)): 3 | Foliar treatment phytotoxicity, Cotton (cotton [10]; 100 g ai/ha, Cotton (14 days after treatment)): 4

COCn1nnc(COCc2nc(C(F)(F)F)ccc2C(=O)Nc2nnnn2C)n1 [Compound No. 2-91, 2-(((2-(methoxymethyl)-2H-tetrazol-5-yl)methoxy)methyl)-N-(1-methyl-1H-tetrazol-5-yl)-6-(trifluoromethyl)nicotinamide]
pest or weed control at 50 g/ha (cocklebur): 98% | Foliar treatment herbicidal activity, quack grass (quack grass): 0 | pest or weed control at 50 g/ha (velvetleaf): 98% | Foliar treatment herbicidal activity, black nightshade (black nightshade): 100 | pest or weed control at 50 g/ha (fall panicum): 70% | pest or weed control at 50 g/ha (bindweed): 70% | pest or weed control at 50 g/ha (crabgrass): 90% | plant injury at 50 g/ha (sorghum): 50% | pest or weed control at 50 g/ha (indian jointvetch): 95% | pest or weed control at 50 g/ha (barnyard grass): 80% | Foliar treatment phytotoxicity, Corn (corn [6]; [11]): 2 | Foliar treatment phytotoxicity, Corn (corn [6]; [12]): 1 | Foliar treatment phytotoxicity, Corn (corn [6]; [13]): 3 | Foliar treatment phytotoxicity, Corn (corn [6]; [14]): 3 | Foliar treatment phytotoxicity, Wheat (wheat [9]; [15]): 0 | Foliar treatment phytotoxicity, Wheat (wheat [9]; [16]): 0 | Foliar treatment phytotoxicity, Wheat (wheat [9]; [17]): 0 | Foliar treatment phytotoxicity, Wheat (wheat [9]; [18]): 0

C=C(C)c1nc(COCc2nc(C(F)(F)F)ccc2C(=O)Nc2nnnn2C)nn1C [Compound No. 2-128, N-(1-methyl-1H-tetrazol-5-yl)-2-(((1-methyl-5-(prop-1-en-2-yl)-1H-1,2,4-triazol-3-yl)methoxy)methyl)-6-(trifluoromethyl)nicotinamide]
pest or weed control at 50 g/ha (cocklebur): 50% | Foliar treatment herbicidal activity, quack grass (quack grass): 0 | pest or weed control at 50 g/ha (velvetleaf): 70% | pest or weed control at 50 g/ha (black nightshade; Solanum nigrum): 90% | pest or weed control at 50 g/ha (fall panicum): 70% | pest or weed control at 50 g/ha (bindweed): 40% | pest or weed control at 50 g/ha (crabgrass): 60% | plant injury at 50 g/ha (sorghum): 20% | Foliar treatment herbicidal activity, Indian jointvetch (indian jointvetch): 0 | pest or weed control at 50 g/ha (barnyard grass): 60% | Foliar treatment phytotoxicity, Corn (corn [6]; [11]): 1 | Foliar treatment phytotoxicity, Corn (corn [6]; [12]): 0 | Foliar treatment phytotoxicity, Corn (corn [6]; [13]): 2 | Foliar treatment phytotoxicity, Corn (corn [6]; [14]): 0 | Foliar treatment phytotoxicity, Wheat (wheat [9]; [15]): 0 | Foliar treatment phytotoxicity, Wheat (wheat [9]; [16]): 0 | Foliar treatment phytotoxicity, Wheat (wheat [9]; [17]): 0 | Foliar treatment phytotoxicity, Wheat (wheat [9]; [18]): 0
